For this assay, the system named is SK-MEL3. Put plainly: Antiproliferative activity against human SK-MEL3 cells assessed as inhibition of cell growth incubated for 24 hrs by MTT assay. Format: functional, cell-based. Particulars: SK-MEL3, 24 h.

Consider 1 molecule from ChEMBL document CHEMBL5352476, “A comprehensive overview of Artemisinin and its derivatives as anticancer agents” (Eur J Med Chem, 2023).

What is called IC50 is the concentration that inhibits the measured activity by half.

The structures appear in SMILES notation.

As for `COc1cc(/C=C\C(=O)CC(=O)/C=C\c2ccc(OC(=O)O[C@@H]3O[C@@H]4O[C@@]5(C)CC[C@H]6[C@H](C)CC[C@@H]([C@H]3C)[C@@]46OO5)c(OC)c2)ccc1OC(=O)CCC(=O)O[C@@H]1O[C@@H]2O[C@@]3(C)CC[C@H]4[C@H](C)CC[C@@H]([C@H]1C)[C@@]24OO3`, the IC50 stood at 3000 nM.
